pIC50: −log10 of the molar value.
biological target: T1, fMet-Leu-Phe receptor (Homo sapiens, UniProt P21462); assay: FPR ligands, dose response (AID 519)
T1 sequence (P21462 whole entry): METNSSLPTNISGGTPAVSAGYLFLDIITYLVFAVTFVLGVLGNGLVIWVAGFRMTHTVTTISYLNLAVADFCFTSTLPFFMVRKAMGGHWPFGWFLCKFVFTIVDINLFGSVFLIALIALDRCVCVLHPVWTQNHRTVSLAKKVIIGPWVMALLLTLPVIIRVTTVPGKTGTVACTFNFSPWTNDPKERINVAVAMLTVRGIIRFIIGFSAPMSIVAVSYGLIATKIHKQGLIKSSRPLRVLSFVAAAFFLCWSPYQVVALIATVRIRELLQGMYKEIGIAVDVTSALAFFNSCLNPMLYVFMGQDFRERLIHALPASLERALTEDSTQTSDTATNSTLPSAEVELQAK

SMILES	pIC50
Cc1ccc(C2C(C(=O)c3sc(C)nc3C)C(=O)C(=O)N2CCN2CCOCC2)o1 (configuration not stated) [3-(2,4-dimethyl-1,3-thiazole-5-carbonyl)-4-hydroxy-2-(5-methylfuran-2-yl)-1-(2-morpholin-4-ylethyl)-2H-pyrrol-5-one]	< 4.18
CCCOc1ccc(C2C(C(=O)c3ccc(C)o3)C(=O)C(=O)N2Cc2cccnc2)cc1 (configuration not stated) [3-(5-methylfuran-2-yl)carbonyl-4-oxidanyl-2-(4-propoxyphenyl)-1-(pyridin-3-ylmethyl)-2H-pyrrol-5-one]	4.37
COCCN1C(=O)C(=O)C(C(=O)c2ccco2)C1c1cccc(Oc2ccccc2)c1 (configuration not stated) [3-(furan-2-carbonyl)-4-hydroxy-1-(2-methoxyethyl)-2-(3-phenoxyphenyl)-2H-pyrrol-5-one]	4.25
C=CCOc1cccc(C2C(C(=O)c3ccco3)C(=O)C(=O)N2CCN2CCOCC2)c1 (configuration not stated) [3-(furan-2-carbonyl)-4-hydroxy-1-(2-morpholin-4-ylethyl)-2-(3-prop-2-enoxyphenyl)-2H-pyrrol-5-one]	< 4.18
O=C1C(=O)N(CCc2ccccc2)C(c2cccnc2)C1C(=O)c1ccco1 (configuration not stated) [3-(furan-2-carbonyl)-4-hydroxy-1-(2-phenylethyl)-2-pyridin-3-yl-2H-pyrrol-5-one]	< 4.18
CCCOc1ccc(C2C(C(=O)c3ccco3)C(=O)C(=O)N2CCCn2ccnc2)cc1 (configuration not stated) [3-(furan-2-carbonyl)-4-hydroxy-1-(3-imidazol-1-ylpropyl)-2-(4-propoxyphenyl)-2H-pyrrol-5-one]	< 4.18
COCCCN1C(=O)C(=O)C(C(=O)c2ccco2)C1c1ccccc1 (configuration not stated) [3-(furan-2-carbonyl)-4-hydroxy-1-(3-methoxypropyl)-2-phenyl-2H-pyrrol-5-one]	4.84
Cc1cc(N2C(=O)C(=O)C(C(=O)c3ccco3)C2c2cccnc2)no1 (configuration not stated) [3-(furan-2-carbonyl)-4-hydroxy-1-(5-methyl-1,2-oxazol-3-yl)-2-pyridin-3-yl-2H-pyrrol-5-one]	< 4.18
O=C1C(=O)N(CC2CCCO2)C(c2cccnc2)C1C(=O)c1ccco1 (configuration not stated) [3-(furan-2-carbonyl)-4-hydroxy-1-(oxolan-2-ylmethyl)-2-pyridin-3-yl-2H-pyrrol-5-one]	4.26
COCc1cc(C2C(C(=O)c3ccco3)C(=O)C(=O)N2CCOCCO)ccc1O (configuration not stated) [3-(furan-2-carbonyl)-4-hydroxy-1-[2-(2-hydroxyethoxy)ethyl]-2-[4-hydroxy-3-(methoxymethyl)phenyl]-2H-pyrrol-5-one]	4.53
COc1cc(C2C(C(=O)c3ccco3)C(=O)C(=O)N2CCc2ccccc2)ccc1O (configuration not stated) [3-(furan-2-carbonyl)-4-hydroxy-2-(4-hydroxy-3-methoxyphenyl)-1-(2-phenylethyl)-2H-pyrrol-5-one]	< 4.18
C=CCOc1ccc(C2C(C(=O)c3ccco3)C(=O)C(=O)N2Cc2cccnc2)cc1 (configuration not stated) [3-(furan-2-carbonyl)-4-hydroxy-2-(4-prop-2-enoxyphenyl)-1-(pyridin-3-ylmethyl)-2H-pyrrol-5-one]	5.01
O=C1CCCC(=O)C1C(C#Cc1ccccc1)C1C(=O)CCCC1=O [3-hydroxy-2-[1-(2-hydroxy-6-keto-cyclohexen-1-yl)-3-phenyl-prop-2-ynyl]cyclohex-2-en-1-one]	< 4.18
COC(=O)c1ccc(C2C(C(=O)c3ccc(OC)cc3)C(=O)C(=O)N2Cc2ccco2)cc1 (configuration not stated) [4-[(3Z)-1-(2-furanylmethyl)-3-[hydroxy-(4-methoxyphenyl)methylidene]-4,5-dioxo-2-pyrrolidinyl]benzoic acid methyl ester]	4.37
COC(=O)c1[nH]c(C)c(C(=O)C2C(=O)C(=O)N(CCN3CCOCC3)C2c2cccnc2)c1C (configuration not stated) [4-[(E)-hydroxy-[1-[2-(4-morpholinyl)ethyl]-4,5-dioxo-2-(3-pyridinyl)-3-pyrrolidinylidene]methyl]-3,5-dimethyl-1H-pyrrole-2-carboxylic acid methyl ester]	4.68
Cc1ccsc1C1C2C(=O)CC(C)(C)CC2=Nc2ncnn21 (configuration not stated) [6,6-dimethyl-9-(3-methyl-2-thienyl)-1,5,7,9-tetrahydro-[1,2,4]triazolo[5,1-b]quinazolin-8-one]	4.90
COc1cc(-n2nc(C)c3c2OC(=N)C(C#N)C3c2ccccc2)c(Cl)c(Br)c1O (configuration not stated) [6-amino-1-(3-bromo-2-chloro-4-hydroxy-5-methoxyphenyl)-3-methyl-4-phenyl-1,4-dihydropyrano[2,3-c]pyrazole-5-carbonitrile]	4.49
CSCCC1c2c(-c3cccs3)n[nH]c2OC(=N)C1C#N (configuration not stated) [6-azanyl-4-(2-methylsulfanylethyl)-3-thiophen-2-yl-2,4-dihydropyrano[2,3-c]pyrazole-5-carbonitrile]	< 4.18
Cc1ccc(C2c3c([nH]c(=S)[nH]c3=O)N=C3CC(C)(C)CC(=O)C32)cc1 (configuration not stated) [8,8-dimethyl-5-(4-methylphenyl)-2-sulfanylidene-5,7,9,10-tetrahydro-1H-pyrimido[4,5-b]quinoline-4,6-dione]	4.32
CC1=C(C(=O)OC(C)C)[C@]2(C(=O)N(CC(N)=O)c3ccccc32)C(C#N)C(=N)O1 (stereo partly drawn) [(3R)-6'-amino-1-(2-amino-2-keto-ethyl)-5'-cyano-2-keto-2'-methyl-spiro[indoline-3,4'-pyran]-3'-carboxylic acid isopropyl ester]	< 4.18
C=CCN1C(=O)C2(c3ccccc31)C(C(=O)c1ccc3c(c1)OCCO3)C(=O)C(=O)N2CCCOC (configuration not stated) [(4'E)-1-allyl-4'-[2,3-dihydro-1,4-benzodioxin-6-yl(hydroxy)methylene]-1'-(3-methoxypropyl)spiro[indoline-3,5'-pyrrolidine]-2,2',3'-trione]	< 4.18
COc1cc(C2C(C(=O)c3ccc4c(c3)CC(C)O4)C(=O)C(=O)N2CCCn2ccnc2)ccc1O (configuration not stated) [(4E)-1-(3-imidazol-1-ylpropyl)-5-(3-methoxy-4-oxidanyl-phenyl)-4-[(2-methyl-2,3-dihydro-1-benzofuran-5-yl)-oxidanyl-methylidene]pyrrolidine-2,3-dione]	4.24
COCCCN1C(=O)C(=O)C(C(=O)c2ccc3c(c2)CC(C)O3)C1c1cccnc1 (configuration not stated) [(4E)-1-(3-methoxypropyl)-4-[(2-methyl-2,3-dihydro-1-benzofuran-5-yl)-oxidanyl-methylidene]-5-pyridin-3-yl-pyrrolidine-2,3-dione]	< 4.18
Cc1ccc(C)c(C(=O)C2C(=O)C(=O)N(CCCn3ccnc3)C2c2ccncc2)c1 (configuration not stated) [(4E)-4-[(2,5-dimethylphenyl)-hydroxy-methylene]-1-(3-imidazol-1-ylpropyl)-5-(4-pyridyl)pyrrolidine-2,3-quinone]	< 4.18
Cc1nc2c(C)cccn2c1C(=O)C1C(=O)C(=O)N(CCN2CCOCC2)C1c1cccs1 (configuration not stated) [(4E)-4-[(2,8-dimethyl-3-imidazo[1,2-a]pyridinyl)-hydroxymethylidene]-1-[2-(4-morpholinyl)ethyl]-5-thiophen-2-ylpyrrolidine-2,3-dione]	< 4.18
COc1cccc(C2C(C(=O)c3ccc(OC)c(OC)c3)C(=O)C(=O)N2c2cc(C)on2)c1 (configuration not stated) [(4E)-4-[(3,4-dimethoxyphenyl)-hydroxy-methylene]-5-(3-methoxyphenyl)-1-(5-methylisoxazol-3-yl)pyrrolidine-2,3-quinone]	< 4.18
COCCCN1C(=O)C(=O)C(C(=O)c2ccc(OC)cc2C)C1c1cccnc1 (configuration not stated) [(4E)-4-[(4-methoxy-2-methyl-phenyl)-oxidanyl-methylidene]-1-(3-methoxypropyl)-5-pyridin-3-yl-pyrrolidine-2,3-dione]	< 4.18

Reference: BindingDB's records for doi:10.7270/Q2J67FB5 (Nmmlsc, 2007)
